Test results taken from patent publication US9902761B2, “Polypeptides, nucleic acids and uses thereof” (AGENCY FOR SCIENCE, TECHNOLOGY AND RESEARCH, priority 2013, dated 2018).

Legend:
[1] = test system: hESCs; experiment: stress-induced apoptosis of hESCs by ActinomycinD; type: cell-based, human
[2] = test system: hESCs; experiment: qPCR of mesendodermal markers in hESCs; type: cell-based, human
Description: (§1) After the indicated time periods, embryoid bodies were harvested and RNA extracted using RNeasy kit ([…]). qPCR reactions were carried out using either Universal FastSlart SYBR Green Mastermix (Roche) or using the Universal Probe Library system (Roche) in tandem with Taqman Fast Mastermix (Invitrogen). Primer sequences can be found in Table E1.

[3] = test system: hESCs; experiment: stress-induced apoptosis of hESCs by ionizing radiation; type: cell-based, human
[4] = test system: hESCs; experiment: survival of hESCs after single-cell dissociation (anoikis); type: cell-based, human; settings: with or without Y-27632
Description: hESCs were dissociated into single cells using Accutase (Stem Cell Technologies) and plated in the presence of 10 μM Y-27632 (ROCK inhibitor) for 12 hours (Watanabe et al., 2007).

[5] = test system: PI3K/AKT pathway; experiment: signaling pathway assay in starved hESCs pulsed with peptide (SDS-PAGE, western); type: cell-based, human
Description: To assay the signaling pathway activated by ELA, hESCs were dissociated and plated in mTSER1 for 48 hours, followed by a 2-hour starvation in DMEM/F12. Synthetically produced ELA or ELA^RR>GG peptides, dialyzed against PBS to remove any residual synthesis buffers, were added at a final concentration of 5 uM (or as indicate(D) for the indicated period of time. Where applicable, PI3K inhibitors LY294002 (5 uM) and Wortmannin (1 uM) were added 30 minutes before pulsing with ELA peptides. Cells were lysed with PhosphoSafe™ (Millipore) for SDS-PAGE.

[6] = biological target: CXCR4 (Homo sapiens, UniProt P61073); experiment: ELA receptor binding assay (ELA-AP) on 293T cells transfected with receptor; set-up: 293T cells transfected with plasmids encoding full-length ORFs of putative receptors; expressed in transfected cells; host or cells: 293T; settings: ELA-AP conditioned medium, 3 hours
CXCR4, sequence (P61073 whole entry): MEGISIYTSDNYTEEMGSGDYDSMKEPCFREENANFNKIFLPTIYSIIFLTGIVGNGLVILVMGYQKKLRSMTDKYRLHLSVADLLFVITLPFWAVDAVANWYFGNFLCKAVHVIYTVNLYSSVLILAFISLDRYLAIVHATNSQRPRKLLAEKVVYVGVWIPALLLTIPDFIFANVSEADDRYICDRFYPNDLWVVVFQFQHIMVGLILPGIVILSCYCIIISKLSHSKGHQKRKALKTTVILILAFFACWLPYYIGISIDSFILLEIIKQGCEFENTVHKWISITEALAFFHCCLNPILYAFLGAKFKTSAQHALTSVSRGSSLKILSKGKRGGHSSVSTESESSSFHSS
Description: Secreted ELA-Alkaline Phosphatase (ELA-AP) was produced by transfecting a construct encoding ELA-AP into 293T cells, as described previously (Chng et al., 2013). Conditioned medium from ELA-AP expressing cells was then incubated for 3 hours with 293T cells transfected with plasmids encoding full-length ORFs of putative receptors. Unbound ELA-AP was washed away and cells were lysed with 1% Triton-X/PBS. Lysates were cleared and incubated with an AP substrate BCIP/NBT at 37° C. for 15 minutes. Optical density was read at 495 nm, and the intensity of blue coloration is directly proportional to the affinity of ELA-AP to the over-expressed receptor.

[7] = test system: hESCs; experiment: insulin replacement assay in hESCs; type: cell-based, human
Description: For insulin replacement assays, SHEF4 or HESC3 hESCs were cultured in TSER-E5 (Stem Cell Technologies) supplemented with TGF-β (5 ng/ml, R&D Systems) and bFGF (100 ng/ml, Invitrogen) with and without INSULIN (10 ug/ml, SIGMA).

[8] = test system: hESCs; experiment: embryoid body differentiation of ELA-treated hESCs (qPCR); type: cell-based, human
Description: Embryoid body differentiation was performed by plating 1 million cells per well of an Aggrewell 400 plate in Aggrewell Medium (Stem Cell Technologies) followed by harvesting and replating into low-adhesion plates (Corning).
as §1

[9] = artherosclerosis, APELIN experiments repeated with ELABELA; type: in vivo
Description: J Clin Invest 2008; 118:3343-54.
The experiments described in the above publication are repeated, with the replacement of APELIN with ELABELA.

[10] = test system: HIV-1 NL43; experiment: HIV inhibition assay in P4C5 HeLa cells (β-gal activity); type: cell-based; settings: CXCR4-tropic strain
[11] = test system: hESCs; experiment: FACS of stem cell surface markers SSEA3 and TRA-1-60 in hESCs; type: cell-based, human
[12] = myocardial ischaemia-reperfusion injury, APELIN experiments repeated with ELABELA; type: in vivo; settings: administered during reperfusion
Description: Peptides 2009; 30:1144-52. • Simpkin J C, Yellon D M, Davidson S M, Lim S Y, Wynne A M, Smith C C. […] Basic Res Cardiol 2007; 102:518-28.

[13] = coronary artery disease / myocardial infarction, APELIN experiments repeated with ELABELA; type: in vivo
Description: Peptides 2013; 46:76-82. • Li L, Zeng H, Chen J X. Apelin-13 increases myocardial progenitor cells and improves repair postmyocardial infarction. Am J Physiol Heart Cire Physiol 2012; 303:H605-18. • Pisarenko O I, Serebryakova L I, Pelogeykina Y A, et al. In vivo reduction of reperfusion injury to the heart with apelin-12 peptide in rats. Bull Exp Biol Med 2011; 152:79-82.

[14] = test system: hECs; experiment: growth and survival effect of recombinant ELA on hECs; type: cell-based, human
Description: Primary human fibroblasts, SW1353 chondrosarcoma (ATCC) and NTERA2 hECs (a gift from Barbara Knowles and Davor Solter) were grown in Dulbecco's modified Eagle's medium (DMEM) with 10% FBS (Hyclone), 2 mM GlutaMAX™ (Invitrogen) and 1 mM sodium pyruvate. For xCELLigence real time growth assays, 4000 cells were plated per well of an E-plate (ACEA Biosciences) with media changes every 48 hours. […] Cell cycle studies were performed with Click-iT EDU staining kit (Invitrogen) and by performing a double thymidine block (2.5 mM thymidine; 16 hour block, 8 hour release, 16 hour block) followed by DAPI staining for DNA content at the indicated times following release.

[15] = 3 hours after 1 Gray of γ irradiation

## QRPVNLTMRRKLRKHNCLQRRCMPLHSRVPFP [ELA]
[1]
  levels of MCL-1: rescued with exogenous ELA
  levels of P53 protein following exposure to stress: no apparent effect
[1]; mitochondria versus cytoplasm
  BAX localisation: remained primarily in the cytoplasm
[2]
  expression of mesendodermal genes GATA6, GATA4, FOXA2, EOMES and BRA: consistently upregulated
[3]
  rescue of the irradiation sensitivity of shELA hESCs: rescued this phenotype
[3]; [15]
  activated CASPASE 3 after irradiation: almost undetectable
  γH2AX foci after irradiation: comparable numbers of γH2AX foci
[4]
  survival following dissociation (anoikis): able to increase survival following dissociation
[5]
  activation of ERK and SMAD2: little to no activation of ERK and SMAD2
  activation of PI3K/AKT and mTORC1 pathway (p70S6K phosphorylation): activates the PI3K/AKT pathway and subsequently the mTORC1 pathway
[5]; 5 uM peptide after 2-hour starvation
  phosphorylation of AKT at serine 473 and PRAS40 at threonine 246: sufficient to trigger the immediated phosphorylation of AKT at serine 473
[6]
  cell surface binding to CXCR4: confers cell surface binding to ELA
[7]
  growth rescue of shELA hESCs under INSULIN deprivation: intermediate growth rescue
[8]
  lineage bias during embryoid body differentiation: not biased towards mesoderm or endoderm lineages
[9]; Ang II
  protection against artherosclerosis: can protect against artherosclerosis
[9]; in vivo
  abdominal aortic aneurysm formation and rupture: inhibit abdominal aortic aneurysm formation and rupture
[10]
  inhibition of infection with HIV-1 NL43: inhibits infection
[10]; HeLa cells, B-Gal activity after 36-48 hrs of infection
  concentration at which ELA inhibits HIV: 10 to 40 µM
[11]
  levels of cell surface markers SSEA3 and TRA-1-60: unchanged levels
[12]
  infarct size: significantly decrease infarct size
[13]; in vivo
  angiogenesis and cardiac repair postmyocardial infarction: promote angiogenesis and ameliorate cardiac repair postmyocardial infarction
[13]; injection
  myocardial infarction size and damage to cardiomyocytes: limit the myocardial infarction size and reduce damage to cardiomyocytes
[14]
  activity of recombinant ELA on hECs: exerted activity only on hESCs cultures and no other differentiated cell types
